Experimental findings from patent publication US20230391842A1, “RETRO-INVERSO PEPTIDES” (Herantis Pharma OYJ, priority 2019, published 2023) are described below.

For orientation: AUC(0-inf) means the area under the concentration-time curve extrapolated to infinity. A higher AUC(0-inf) goes with more exposure. Usually MRT stands for a mean duration of stay, worked out from the concentration-time curve. Usually Vd stands for a proportionality between amount in the body and measured concentration, not a real space. What is called half-life is how long it takes for the measured level to halve. Lower therefore signals rapid decline. As usually defined, the Kd is a measure of binding affinity in units of concentration.

The subject of data set [1] is rat hepatocytes. The data set can be described thus: In vitro metabolic stability in rat hepatocytes. The following applies: 1 μM, 37° C., 0-60 min.
Data set [2] concerns human hepatocytes. The data set can be described thus: In vitro metabolic stability in human hepatocytes. Conditions: 1 μM, 37° C., 0-60 min.
The nature of data set [3]: In vitro metabolic stability in rat plasma. It is filed as in vitro ADME. Conditions: 1 μM, 37° C., up to 120 min. The protocol: Metabolic stability of the retro-inverso and native control peptides was studied using rat plasma over the time period of 120 min, with initial test concentration of 1 μM. Samples were analysed using LC/QE-orbitrap-MS. Calculated half-life is based on compound disappearance in rat plasma.
The incubation was terminated by acetonitrile. […] Stock solutions was prepared using 50% DMSO, and the compounds were spiked 1/100 to incubation to have final DMSO content of 0.5%. […] For analysis of compounds 13-14 and 19-20 stock solutions were prepared with PBS, and samples were analyzed by UHPLC-ToF mass spectrometry. Enalapril 1 μM was used as a disappearance rate control.

The nature of data set [4]: In vitro metabolic stability in human plasma. It is filed as in vitro ADME. Conditions: 1 μM, 37° C., up to 120 min. As for the experimental part: Metabolic stability was studied using human plasma over the time period of 120 min, with initial test concentration of 1 μM. Samples were analysed using LC/QE-orbitrap-MS. Calculated half-life is based on compound disappearance in human plasma.
The incubation was terminated by acetonitrile. […] Propanthelin bromide 1 uM was used as a disappearance rate control. […] The in vitro half-life (t1/2) of is study compound is defined as: t1/2=ln2/k.

Data set [5] deals with unfolded protein response (UPR) pathway signaling in TH-positive neurons injured with MPP+. The experiment in a line: Dependence of neuroprotection in MPP+-injured mesencephalic neurons on UPR signaling (PERK / IRE1alpha inhibitors). It is filed as cell-based, rat. The protocol:
CDNF and MANF protect cells from ER stress-induced cell dysfunction or cell death, such as apoptosis by modulating cellular responses to ER stress. […] Binding of compounds to GRP78-NBD was assessed in a cell-free binding assay using purified recombinant GRP78-NBD and synthesized peptides. As GRP78 also serves as a critical ligand of the three receptors of the unfolded protein response (UPR) pathway, IRE1[…], PERK and ATF6, the dependency of the compounds' neuroprotective effects on UPR signaling was also tested.
The neuronal cell culture, MPP+ intoxication, immunostaining and analysis of neuroprotective effects of compounds were performed as in Example 1. PERK inhibitor GSK2606414 (2 µM, Sigma) or IRE1alpha inhibitor KIRA6 (2 µM, Sigma) were added to is the culture 1 h before addition of the test compounds.

Data set [6] is described as follows: In vivo pharmacokinetics after intravenous administration to rats. Conditions: rat, 5 mg/kg intravenous bolus injection, male Sprague-Dawley rats, plasma. As for the experimental part:
Test compounds were intravenously (i.v.) administered to male Spraque-Dawley rats (about six weeks old, n=3 per compound) at 5 mg/kg. Blood samples were collected from jugular vein through implanted in-dwelling catheters (250 μl blood) into labelled polypropylene tubes containing anticoagulant (heparin) at 2 min, 5 min, 15 min, 30 min, 1 h, 2 h and 4 h after compound administration and held on wet ice for a maximum of 30 minutes. The blood samples were centrifuged for plasma separation (4° C., 21100 G, 5 min). Tolbutamide 500 ng/ml with 10% TFA in acetonitrile or in MeCN was used as an internal standard solution. The standard samples were prepared into rat plasma by spiking the matrix into concentrations 2-10 000 ng/ml of the analyte, respectively, and otherwise treated as the samples. To 50 μl aliquots of sample plasma was added 200 μl of internal standard. Samples were mixed (150 rpm, 15 min) and centrifugated (3000 rpm, 15 min). The analytical method was optimized for reaction monitoring chromatographic (peak shape & retention) shifts and mass spectrometric properties (ionization efficiency, MS/MS detection). Supernatants were is analyzed by UHPLC-TOF mass spectrometry using electrospray ionization. […]

Data set [7] deals with dopaminergic TH-positive neurons injured with MPP+. The data set can be described thus: Neuroprotective effect on dopaminergic TH-positive neurons injured with MPP+ (primary mesencephalic culture). It is filed as cell-based, rat. Conditions: MPP+ 4 μM, 48 h; stated for 'most cases'. The protocol:
Neuroprotective effects of compounds 1-20 (SEQ ID NO:s 1-20, parent and retro-inverso) were tested in an in vitro model in which primary cultures of rat embryonic mesencephalic neurons were stressed with MPP+, the active metabolite of neurotoxin 1-methyl-4-phenyl-1,2,3,6-tetrahydropyridine (MPTP). MPP+ kills dopaminergic (TH-positive) neurons via a variety of toxic mechanisms, including mitochondrial dysfunction, generation of peroxynitrite, oxidative stress, ER stress and induction of apoptosis.
Rat dopaminergic neurons were cultured as described by Visanji et al., 2008. Briefly, the midbrains obtained from 15-day-old rat embryos (Janvier, France) were dissected, and the ventral portion of the mesencephalic flexure, a region of the developing brain rich in dopaminergic neurons, was used for the cell preparations. The midbrain cells were dissociated by trypsinization for 20 min at 37° C. […] The reaction was stopped by adding Dulbecco's modified Eagle's medium (DMEM) containing DNAase I grade II (0.5 mg/mL) and 10% of fetal calf serum (FCS). Cells were then mechanically dissociated by 3 passages through a 10 ml pipette. Cells were then centrifuged at 180×g for 10 min at +4° C. on a layer of BSA (3.5%) in L15 medium. The cell pellets was re-suspended in a defined culture serum-free medium consisting of Neurobasal (Invitrogen) supplemented with B27 (2%), L-glutamine (2 mM) and 2% of PS solution and 10 ng/ml of Brain-derived neurotrophic factor (BDNF) and 1 ng/mL of Glial-Derived Neurotrophic Factor (GDNF). […] The cells were seeded at a density of 40 000 cells/well in 96 well-plates (pre-coated with poly-L-lysine) and maintained in a humidified incubator at 37° C. in 5% CO2/95% air atmosphere. Half of the medium was changed every 2 days with fresh medium. On 96-wells plates, only 60 wells are used. To avoid any edge effect, the first and last lines and columns were not be used for culture and were filled with sterile water.
On day 6 of culture, CDNF or the compounds 1-20 (SEQ ID NO:s 1-20, parent and retro-inverso), were dissolved in culture medium and then pre-incubated with mesencephalic neurons for 4 hours before the MPP+ application. Four hours after the preincubation of the compounds, MPP+ was added to a final concentration of 4 μM, diluted in control medium still in presence of compounds for 48 h.
48 hours after intoxication, the cells were fixed by a solution of 4% paraformaldehyde in PBS, pH 7.3 for 20 min at room temperature. The cells were washed twice in PBS, and then permeabilized and non-specific sites were blocked with a solution of PBS containing 0.1% of saponin and 1% FCS for 15 min at room temperature. Next, the cells were incubated with (a) a monoclonal antibody anti-Tyrosine Hydroxylase (TH) produced in mouse at dilution of 1:1 0000 and with (b) a polyclonal antibody anti-alpha-synuclein (aSyn) antibody produced in rabbit at dilution of 1:400 in PBS containing 1% FCS, 0.1% saponin, for 2 h at room temperature.
48 hours after intoxication, the cell culture supernatant was removed, and the cells fixed by a solution of 4% paraformaldehyde in PBS, pH 7.3 for 20 min at room temperature. The cells were washed twice in PBS, and then permeabilized and non-specific sites were blocked with a solution of PBS containing 0.1% of saponin and 1% FCS for 15 min at room temperature. Then, the cells were incubated with a) a monoclonal Anti-Tyrosine Hydroxylase (TH) antibody produced in mouse at dilution of 1:10000 in PBS containing 1% FCS, 0.1% saponin, for 2 hours at room temperature, and b) a polyclonal anti-postsynaptic density protein-95 (PSD-95) antibody produced in rabbit at dilution of 1:200 in PBS containing 1% FCS, 0.1% saponin, for 2 h at room temperature. This antibody stains specifically synapses.
For each condition, pictures representing the whole well area were automatically acquired using ImageXpress (Molecular device) at 10× (20 pictures, for TH and a-syn) or at 40× magnification (60 pictures, for TH and PSD-95). […]

The target of data set [8] is nucleotide-binding domain of GRP78 (GRP78-NBD). The data set can be described thus: Binding to GRP78-NBD Kd (μM). From the text: Table printed on a drawing sheet, FIG. 5B
Head of the field: Binding to GRP78-NBD Kd (μM)
GRP78-NBD is shown in a to translucent surface model along with its cartoon trace. The Cys-Cys bond in compound 14 (SEQ ID NO: 14) is shown in sticks.
The binding affinities are obtained by microscale thermophoresis-based cell free assay.
GSK2606414 was used to inhibit PERK signaling and KIRA6 to inhibit IRE1alpha signaling. * p<0.05, ** p<0.01, *** p<0.001, **** p<0.0001 one-way ANOVA test with post-hoc Fisher's LSD test for pairwise comparison vs MPP+ negative control. #p<0.05, ##p<0.01, ###p<0.001, ####p<0.0001 one-way ANOVA test with post-hoc Fisher's LSD test for pairwise comparison between effect of compound alone and its combination with UPR signal inhibitor.
Where the first naming reader finds the target: head: Binding to GRP78-NBD Kd (μM)

Positions of bridges follow the written chain, without caps; N, C: chain ends. Non-standard residues stand in square brackets, D forms with d. Residues, ends and D or L forms follow the SMILES beside them.

As to `C[C@H](O)[C@@H](NC(=O)[C@H]1CSSC[C@@H](NC(=O)[C@@H](C)NC(=O)[C@@H](CCC(=O)O)NC(=O)[C@@H](CCCCN)NC(=O)[C@H](N)CO)C(=O)NCC(=O)N[C@H](CCCCN)C(=O)N1)C(=O)N[C@H](CCC(=O)O)C(=O)NCC(=O)O` [Compound 8, SKEACGKCTEG] (H-[dS][dK][dE][dA][dC]G[dK][dC][dT][dE]G-OH; disulfide 5-8; N-terminus and C-terminus assumed), in data set [1], the “stability in rat hepatocytes as compared to parent compound” value is reported as “significantly improved stability”. In addition, the “stability in human hepatocytes as compared to parent compound” value in data set [2] is on record as “significantly improved stability”. In data set [3], the “stability in rat plasma as compared to parent compound” value is listed as “significantly improved stability”. For the same compound, the “stability in human plasma as compared to parent compound” value in data set [4] is “improved stability”.
Regarding `C[C@H](O)[C@@H](NC(=O)[C@H]1CSSC[C@@H](NC(=O)[C@@H](C)NC(=O)[C@H](N)CCC(=O)O)C(=O)NCC(=O)N[C@H](CCCCN)C(=O)N1)C(=O)N[C@H](CCC(=O)O)C(=O)O` [Compound 20, EACGKCTE], the “neuroprotective effect in the presence of PERK inhibitor GSK2606414” value in data set [5] (GSK2606414 added 1 h before test compound) is on record as “abolished”. Also, in data set [5] (KIRA6 added 1 h before test compound), the “neuroprotective effect in the presence of IRE1alpha inhibitor KIRA6” value is given as “abolished”. The “stability in rat hepatocytes as compared to parent compound” value in data set [1] was “significantly improved stability”. In data set [6], the AUC(0-inf) stood at 18400 ng·h/mL, the MRT was 23.9 min, the Vd amounted to 0.11 L/kg and the half-life stood at 20.5 min. For the same compound, in data set [6] (read-out: CI), the clearance worked out at 4.57 mL/min/kg. Moreover, in data set [3], the “stability in rat plasma as compared to parent compound” value is listed as “significantly improved stability”. Moreover, the “potency of retro-inverso peptides relative to their parent compounds and to full-length CDNF protein” value in data set [7] is “comparable”. Further, the Kd in data set [8] came to 3.4 µM.
